Values of other authors, collected in patent publication US20120315337A1, “MULTIPARTICULATE 5-HTP COMPOSITIONS AND RELATED METHODS” (priority 2011, published 2012).

Details: comparison of antidepressant drug fluoxamine with 5-HTP; background statement

Row | SMILES | efficacy in clinical trial
1 | COCCCC/C(=N\OCCN)c1ccc(C(F)(F)F)cc1 [fluoxamine] | equally effective
2 | N[C@@H](Cc1c[nH]c2ccc(O)cc12)C(=O)O [5-HTP, L-5-hydroxytryptophan] | equally effective
